Values quoted from earlier work in PMC11054282, “Structural Investigations on 2-Amidobenzimidazole Derivatives as New Inhibitors of Protein Kinase CK1 Delta” (Pharmaceuticals, 2024).
Read-outs that look alike come from different tables or passages of the source.

Columns and labels:
CK1δ = conditions: cited from earlier work
CK1ε = conditions: cited from earlier work

For COc1ccc(/C=C/C(=O)Nc2cc(-c3nc(SC)[nH]c3-c3ccc(F)cc3)ccn2)c(OC)c1 [III], the IC50 (CK1δ; compound III, Figure 1, read-out: CK1δ IC50) is listed as 4 nM and the IC50 (CK1ε; compound III, Figure 1) is listed as 73 nM.

In the case of COc1ccc(/C=C/C(=O)Nc2cc(-c3c(-c4ccc(F)cc4)noc3C(C)C)ccn2)c(OC)c1 [II], the IC50 (CK1δ; compound II, Figure 1, read-out: CK1δ IC50) is given as 33 nM and the IC50 (CK1ε; compound II, Figure 1) is given as 2520 nM.

For O=C(Nc1nc2cc(C(F)(F)F)ccc2[nH]1)c1csc(NC(=O)c2ccccc2OC(F)(F)F)n1 [V], the IC50 (CK1δ; Bischof-5, Figure 2, read-out: CK1δ IC50) is listed as […].
